Earlier results in patent US20020025310A1, “Compositions and methods for promoting healthy joints” (priority 2000, published 2002).

Key:
[1] = 200 to 400 mg/day
[2] = system: complex I, IV, and V in hepatic mitochondria; conditions: senescent mice, compared to controls without NAC supplementation
[3] = system: isolated alveolar cells; conditions: animal studies
[4] = 800 mg orally, heavy aerobic exercise
[5] = COPD patients, 600 mg per day oral, compared to patients without NAC
[6] = target: PARS (Homo sapiens, UniProt P09874); conditions: 100 mg/day supplementation, smokers with varying levels of cytogenic damage
Sequence of PARS (P09874 whole entry): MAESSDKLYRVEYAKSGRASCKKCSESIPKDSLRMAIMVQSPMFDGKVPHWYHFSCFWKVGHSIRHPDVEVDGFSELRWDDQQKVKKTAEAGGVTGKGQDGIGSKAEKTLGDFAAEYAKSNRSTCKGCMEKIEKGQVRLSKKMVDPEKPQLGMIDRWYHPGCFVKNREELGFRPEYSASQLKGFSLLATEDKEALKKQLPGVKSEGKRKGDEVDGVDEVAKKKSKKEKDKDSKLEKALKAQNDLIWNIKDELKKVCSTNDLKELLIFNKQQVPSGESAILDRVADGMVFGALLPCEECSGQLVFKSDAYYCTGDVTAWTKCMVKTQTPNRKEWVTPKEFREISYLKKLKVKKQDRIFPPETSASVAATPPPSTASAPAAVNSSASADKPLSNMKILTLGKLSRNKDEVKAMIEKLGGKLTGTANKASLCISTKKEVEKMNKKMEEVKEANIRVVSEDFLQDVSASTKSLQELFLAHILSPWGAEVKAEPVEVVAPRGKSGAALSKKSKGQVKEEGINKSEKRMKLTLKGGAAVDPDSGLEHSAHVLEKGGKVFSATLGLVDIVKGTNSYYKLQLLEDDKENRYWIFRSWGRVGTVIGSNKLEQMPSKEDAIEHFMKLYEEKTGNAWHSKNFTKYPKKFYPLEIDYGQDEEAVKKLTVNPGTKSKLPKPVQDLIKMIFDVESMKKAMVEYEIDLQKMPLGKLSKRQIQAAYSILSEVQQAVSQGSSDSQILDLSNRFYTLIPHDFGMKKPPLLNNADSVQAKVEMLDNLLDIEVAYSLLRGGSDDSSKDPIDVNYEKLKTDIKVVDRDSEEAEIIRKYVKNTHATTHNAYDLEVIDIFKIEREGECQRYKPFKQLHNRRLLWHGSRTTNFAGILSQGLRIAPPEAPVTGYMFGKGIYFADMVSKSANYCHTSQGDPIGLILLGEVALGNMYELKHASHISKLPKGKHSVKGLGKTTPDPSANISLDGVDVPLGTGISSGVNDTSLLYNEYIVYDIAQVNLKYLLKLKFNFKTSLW

Structure (SMILES): CC(=O)N[C@@H](CS)C(=O)O [NAC, N-acetylcysteine]
- glutathione disulfide-to-reduced glutathione ratio [1]: reduction
- intercellular glutathione levels [1]: significant increase
- specific activities of complex I, IV, and V in hepatic mitochondria [2]: significantly higher
- intracellular ATP depletion after oxidant exposure [3]: helps protect
- exercise-associated damage in leukocyte DNA [4]: less exercise-associated damage in leukocyte DNA
- glutathione-to-glutathione disulfide ratio [4]: increased
- plasma lipid peroxide level [4]: lowered
- bacterial-positive cultures [5]: fewer bacterial-positive cultures
- clinical course [5]: improved clinical course
- use of bronchodilators [5]: reduced use of bronchodilators
- individuals reporting side effects (400 to 6400 mg/m^2/day in divided doses): 13 of 26
- significant side effects (400 to 6400 mg/m^2/day in divided doses, doubled each month): bad taste and GI disturbances
- dose exceeded before any difficulty was reported (individuals reporting side effects): > 800 mg/m^2

Structure (SMILES): O=C(O)c1cccnc1 [nicotinic acid]
- PARS activity [6]: did not result in a significant reduction
